Tests used:
Format in all cases: cell-based
Primary melanocytes = assay: Safety, MTT test in primary melanocytes; settings: 48 hours
Procedure: (§1) In order to test the safety of the compounds, both normal human cells were used: keratinocytes (HaCaT), fibroblasts (BJ), primary melanocytes that occur in the skin, as well as human cancer cells: the hepatocarcinoma line HepG2 and the neuroblastoma line SH-SY5Y, which are considered a model for the assessment of hepatocytotoxicity and neurocytotoxicity. The concentrations of the tested compounds in the range of 250-100 µM were used in the studies. The cell lines used in the research were purchased from the American Type Culture Collection (ATCC) and were cultured in media recommended by the manufacturer with the addition of FBS and antibiotics in an incubator ensuring appropriate culture conditions, i.e. humidity, temperature and CO2 concentration. Cells were seeded into multiwell plates and incubated with the test compounds for 48 hours. After this time, MTT and LDH tests were performed to assess cell viability. The MTT test is based on the ability to transform the substrate: [3-(4,5-dimethyl-2-thiazolyl)-2,5-diphenyl-2H-tetrazolium bromide into a colored product only by living cells. The absorbance at 570 nm, which corresponds to the absorption maximum for the product, is directly proportional to cell viability. The LDH test is based on testing the activity of the enzyme lactate dehydrogenase in the culture medium, which is released from cells as a result of damage to the cell membrane, e.g. as a result of cell death. Triton X-100 was used as a positive control in the test. The determination is colorimetric, the substrate is transformed by the released enzyme into a colored product, an increase in absorbance indicates a larger amount of the released enzyme, and thus confirms greater damage to cell membranes. Tables 7 and 8 present the results obtained, which correspond to the viability of cells incubated with the compounds in relation to the viability of cells constituting a control sample, i.e. incubated with the solvent (DMSO) at the same concentration as in the case of the groups tested in the MTT test or in relation to the results obtained for the Triton X-100 positive control in the LDH test. They indicate that the compounds are safe at the concentrations tested. Table 7. Viability of tested normal human cell lines: keratinocytes (HaCaT), fibroblasts (BJ) and primary melanocytes after incubation with the tested compounds - determination in the MTT test (% of solvent control ± SD) and LDH (percentage of positive control - Triton X-100.

Fibroblasts (BJ) = assay: Safety, LDH test in fibroblasts; settings: 48 hours, positive control Triton X-100
Procedure: as §1

[1] = system: reconstructed human epidermis containing melanocytes MelanoDerm™ MEL-300-B; assay: Melanogenesis inhibition in reconstructed human epidermis containing melanocytes (MelanoDerm); settings: 14 days; for Melanin content [% control, mean ± SD]: 7 applications; for Viability [% control, mean ± SD]: MTT
Procedure: (§2) The research was carried out on reconstructed human epidermis containing melanocytes MelanoDerm™ MEL-300-B from MatTek (Bratislava, Slovakia). The ratio of keratinocytes to melanocytes in the epidermis used is 10:1. Only medium purchased from the same manufacturer (EPI-100-NMM-113) was used to culture the epidermis during the experiments. Once the epidermis was obtained, it was transferred to 12-well plates containing 5 mL of medium/well. Plates were used to enable proper contact of the lower parts of the inserts with the substrate (so-called hanging-top plate). Solutions of the compounds were prepared immediately before their application. The solutions were applied to the inserts using a positive displacement pipette and then distributed using a sterile glass bulb headed Pasteur pipette. The application was repeated every 48 hours, a total of 7 applications were performed. Before the next application, each insert was rinsed with sterile DPBS and dried with a sterile cotton buds. The application was also accompanied by a change of the medium. […] The epidermis was cultured in an incubator ensuring appropriate humidity, temperature (37 °C) and CO2 concentration (5%).
The experiment was conducted for 14 days. After this time, the inserts were rinsed with DPBS and dried with a cotton swab. For the selected pool of inserts, tissue viability was assessed using the MTT (Thiazolyl Blue Tetrazolium bromide) test, the remaining ones were used to determine the amount of melanin. To assess viability, the inserts were transferred to 24-well plate containing 0.3 mL of DMEM medium with 1 mg/mL MTT and incubated for 3 hours in an incubator. The epidermis was then placed in 2 mL of isopropanol and the resulting formazan was extracted for 2 hours at room temperature. The absorbance of the samples was measured at 570 nm in a microplate reader and correlated with the absorbance of the control by the formula: % Viability = [OD (570 nm) for test compound/OD (570 nm) for control] × 100. To determine the amount of melanin, the inserts were incubated in 5% sodium bicarbonate for 30 min, then dried and placed in 0.5 mL of Solvable™ reagent, which caused complete lysis of the epidermis. After heating at 95 °C, the absorbance of the samples was measured at 405 nm in a microplate reader. On this basis, the reduction in the amount of melanin was calculated in relation to the control sample. The absorbance results were also correlated with a standard curve for synthetic melanin. […] Table 5. Viability and melanin content in the MelanoDerm epidermis after application of the tested samples, calculated on the basis of absorbance measurements.
as §2, with “Only media” for “Only medium”, “cotton bud.” for “cotton buds.”
The experiment was conducted for 14 days. After this time, the inserts were rinsed with DPBS and dried with a cotton bud. […]

[2] = system: Chinese hamster ovary cell line (CHO-K1); assay: Cytotoxicity in CHO-K1 cells (MTT) before the micronucleus test; settings: 24 hours
Procedure: The assay was performed using a Chinese hamster ovary cell line (CHO-K1) purchased from the American Type Culture Collection (ATCC). The cells were cultured in F-12K medium with the addition of 10% fetal bovine serum (FBS) and antibiotics (streptomycin/penicillin) in an incubator at 37 °C and 5% CO2 concentration). Before the actual micronucleus test, a cytotoxicity assessment was performed to ensure that the actual test was performed only at safe concentrations. For this purpose, cells were transferred to 96-well plates and incubated with the tested compounds for 24 hours. After this time, the MTT test was performed and cell viability was assessed in comparison to the control group (cells cultured with DMSO at the same concentration as in the case of the tested samples).

Question: Which results are given for O=C(/C=C/c1ccc(Cl)cc1)NCCCO [H-330/21, (2E)-3-(4-chlorophenyl)-N-(3-hydroxypropyl)prop-2-enamide]?
Answer: Primary melanocytes MTT (Primary melanocytes; 100 µM): 101.42±2.21 % of solvent control; Primary melanocytes MTT (Primary melanocytes; 150 µM): 97.02±4.49 % of solvent control; Primary melanocytes MTT (Primary melanocytes; 200 µM): 93.78±2.29 % of solvent control; Primary melanocytes MTT (Primary melanocytes; 250 µM): 90.27±2.25 % of solvent control; Fibroblasts (BJ) LDH (Fibroblasts (BJ); 100 µM): 4.74 percentage of positive control; Fibroblasts (BJ) LDH (Fibroblasts (BJ); 150 µM): 6.50 percentage of positive control; Fibroblasts (BJ) LDH (Fibroblasts (BJ); 200 µM): 14.25 percentage of positive control; Fibroblasts (BJ) LDH (Fibroblasts (BJ); 250 µM): 28.74 percentage of positive control

Question: O=C(/C=C/c1ccccc1)NCCCCCCO [H-425/21, (E)-N-(6-hydroxyhexyl)cinnamic acid amide] was tested. Which “Melanin content [% control, mean ± SD]” value ([1]; 1.0% in 50% PEG (10 µL)) did it give?
Answer: The value was 102.98±4.25 % control.

Question: What about the “Viability [% control, mean ± SD]” value ([1]; 1.0% in 50% PEG (10 µL)) of the same compound?
Answer: The value was 87.16±6.30 % control.

Question: What about the “% Viability [mean]” value ([2]; 100 µM) of the same compound?
Answer: Its value is 87.6%.

Question: What about the “% Viability [mean]” value ([2]; 150 µM) of the same compound?
Answer: The value was 83.8%.

Question: What about the “% Viability [mean]” value ([2]; 200 µM) of the same compound?
Answer: Its value is 88.0%.

Question: With O=C(/C=C/c1ccc(Cl)cc1)NCCO [H-427/21, (2E)-3-(4-chlorophenyl)-N-(2-hydroxyethyl)prop-2-enamide] as the compound, how does the “Primary melanocytes MTT” value (Primary melanocytes; 100 µM) read?
Answer: Its value is 102.20±2.24 % of solvent control.

Question: And the “Primary melanocytes MTT” value (Primary melanocytes; 150 µM)?
Answer: Its value is 100.57±2.18 % of solvent control.

Question: And the “Primary melanocytes MTT” value (Primary melanocytes; 200 µM)?
Answer: Its value is 93.78±2.18 % of solvent control.

Question: What about the “Primary melanocytes MTT” value (Primary melanocytes; 250 µM) of the same compound?
Answer: The value was 85.19±2.03 % of solvent control.

Question: What about the “Fibroblasts (BJ) LDH” value (Fibroblasts (BJ); 100 µM) of the same compound?
Answer: The value was 2.75 percentage of positive control.

Question: And the “Fibroblasts (BJ) LDH” value (Fibroblasts (BJ); 150 µM)?
Answer: The value was 5.92 percentage of positive control.

Question: What about the “Fibroblasts (BJ) LDH” value (Fibroblasts (BJ); 200 µM) of the same compound?
Answer: Its value is 9.00 percentage of positive control.

Question: What about the “Fibroblasts (BJ) LDH” value (Fibroblasts (BJ); 250 µM) of the same compound?
Answer: Its value is 17.32 percentage of positive control.

Question: How did the “Primary melanocytes MTT” value (Primary melanocytes; 100 µM) turn out when O=C(/C=C/c1ccccc1)NCCCCCO [Compound A-133, (2E)-N-(5-hydroxypentyl)-3-phenylprop-2-enamide] was run?
Answer: The value was 103.69±2.57 % of solvent control.

Question: What about the “Primary melanocytes MTT” value (Primary melanocytes; 150 µM) of the same compound?
Answer: The value was 101.88±2.47 % of solvent control.

Question: What about the “Primary melanocytes MTT” value (Primary melanocytes; 200 µM) of the same compound?
Answer: Its value is 97.05±2.96 % of solvent control.

Question: What about the “Primary melanocytes MTT” value (Primary melanocytes; 250 µM) of the same compound?
Answer: The value was 88.88±2.26 % of solvent control.

Question: What about the “Melanin content [% control, mean ± SD]” value ([1]; 1.0% in 50% PEG (10 µL)) of the same compound?
Answer: Its value is 98.62±9.47 % control.

Question: And the “Viability [% control, mean ± SD]” value ([1]; 1.0% in 50% PEG (10 µL))?
Answer: Its value is 101.22±6.52 % control.

Question: What about the “Fibroblasts (BJ) LDH” value (Fibroblasts (BJ); 100 µM) of the same compound?
Answer: Its value is 5.00 percentage of positive control.

Question: What about the “Fibroblasts (BJ) LDH” value (Fibroblasts (BJ); 150 µM) of the same compound?
Answer: The value was 4.47 percentage of positive control.

Question: What about the “Fibroblasts (BJ) LDH” value (Fibroblasts (BJ); 200 µM) of the same compound?
Answer: Its value is 14.72 percentage of positive control.

Question: What about the “Fibroblasts (BJ) LDH” value (Fibroblasts (BJ); 250 µM) of the same compound?
Answer: Its value is 28.31 percentage of positive control.

Question: And the “% Viability [mean]” value ([2]; 100 µM)?
Answer: Its value is 94.6%.

Question: And the “% Viability [mean]” value ([2]; 150 µM)?
Answer: Its value is 97.2%.

Question: What about the “% Viability [mean]” value ([2]; 200 µM) of the same compound?
Answer: Its value is 89.1%.

Question: Cc1ccc(/C=C/C(=O)NCCCCCO)cc1 [H-415/21, (2E)-N-(5-hydroxypentyl)-3-(4-methylphenyl)prop-2-enamide] was tested. Which “Primary melanocytes MTT” value (Primary melanocytes; 100 µM) did it give?
Answer: Its value is 103.27±1.88 % of solvent control.

Question: And the “Primary melanocytes MTT” value (Primary melanocytes; 150 µM)?
Answer: The value was 99.89±2.43 % of solvent control.

Question: And the “Primary melanocytes MTT” value (Primary melanocytes; 200 µM)?
Answer: Its value is 94.81±2.92 % of solvent control.

Question: And the “Primary melanocytes MTT” value (Primary melanocytes; 250 µM)?
Answer: The value was 87.64±1.44 % of solvent control.

Question: What about the “Fibroblasts (BJ) LDH” value (Fibroblasts (BJ); 100 µM) of the same compound?
Answer: The value was 8.81 percentage of positive control.

Question: And the “Fibroblasts (BJ) LDH” value (Fibroblasts (BJ); 150 µM)?
Answer: Its value is 8.75 percentage of positive control.

Question: And the “Fibroblasts (BJ) LDH” value (Fibroblasts (BJ); 200 µM)?
Answer: The value was 9.82 percentage of positive control.

Question: And the “Fibroblasts (BJ) LDH” value (Fibroblasts (BJ); 250 µM)?
Answer: The value was 16.63 percentage of positive control.

Question: What about the “% Viability [mean]” value ([2]; 100 µM) of the same compound?
Answer: The value was 102.2%.

Question: And the “% Viability [mean]” value ([2]; 150 µM)?
Answer: The value was 102.8%.

Question: What about the “% Viability [mean]” value ([2]; 200 µM) of the same compound?
Answer: Its value is 87.2%.

Question: What does the source list for O=C(/C=C/c1ccc(Cl)cc1)NCCCCCO [Compound A-111, (2E)-3-(4-chlorophenyl)-N-(5-hydroxypentyl)prop-2-enamide]?
Answer: Primary melanocytes MTT (Primary melanocytes; 100 µM): 104.51±1.19 % of solvent control; Primary melanocytes MTT (Primary melanocytes; 150 µM): 103.09±1.79 % of solvent control; Primary melanocytes MTT (Primary melanocytes; 200 µM): 99.25±1.92 % of solvent control; Primary melanocytes MTT (Primary melanocytes; 250 µM): 93.39±1.60 % of solvent control; Melanin content [% control, mean ± SD] ([1]; 1.0% in 50% PEG (10 µL)): 94.95±3.57 % control; Viability [% control, mean ± SD] ([1]; 1.0% in 50% PEG (10 µL)): 101.45±6.45 % control; Melanin content [% control, mean ± SD] ([1]; 1.0% in 50% PEG (25 µL)): 81.23±6.53 % control; Viability [% control, mean ± SD] ([1]; 1.0% in 50% PEG (25 µL)): 85.67±7.25 % control; Melanin content [% control, mean ± SD] ([1]; 2.0% in 50% PEG (25 µL)): 67.26±9.18 % control; Viability [% control, mean ± SD] ([1]; 2.0% in 50% PEG (25 µL)): 106.64±7.78 % control; Fibroblasts (BJ) LDH (Fibroblasts (BJ); 100 µM): 5.25 percentage of positive control; Fibroblasts (BJ) LDH (Fibroblasts (BJ); 150 µM): 5.37 percentage of positive control; Fibroblasts (BJ) LDH (Fibroblasts (BJ); 200 µM): 8.43 percentage of positive control; Fibroblasts (BJ) LDH (Fibroblasts (BJ); 250 µM): 14.90 percentage of positive control; % Viability [mean] ([2]; 100 µM): 86.1%; % Viability [mean] ([2]; 150 µM): 95.6%; % Viability [mean] ([2]; 200 µM): 98.6%

Source: EP4324461A1, “(E)-N-CINAMOYLAMINOALKANOLES WITH MELANOGENESIS INHIBITORY ACTIVITY” (UNIWERSYTET JAGIELLONSKI, priority 2022, dated 2024)
